Where two headings read alike, the source gives them in different places.
Columns and labels:
Type in all cases: in vivo
[1] = system: foxtail, giant (giant foxtail, Setaria faberii); test: Test A pre-/postemergence: foxtail, giant; details: Setaria faberi, 240 h; for pest or weed control at 125 g/ha: 125 g ai/ha; for pest or weed control at 500 g/ha: 500 g ai/ha
How it was run: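 Soil medium was loam blended with sand; treatments pre- and postemergence were applied concurrently, postemergence at one- to two-leaf stage. Approximately ten days in greenhouse preceded visual comparison with untreated controls, scored 0 (no effect) to 100 (complete control).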

[2] = system: morningglory (Ipomoea coccinea); test: Test C pre-/postemergence: morningglory
How it was run: (§1)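 Visual injury scored 0–100 (100 = complete control) against untreated controls after 13–15 greenhouse days. Surfactant-containing solvent formulations applied either to soil after sowing (loam/sand) or over 1- to 4-leaf plants, 2–18 cm tall.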

[3] = system: chickweed (common chickweed, Stellaria media); test: Test C postemergence: chickweed; details: 31 g ai/ha, scale 0 to 100 (0 no effect, 100 complete control)
How it was run: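 Plants at the 1- to 4-leaf stage (2 to 18 cm tall), grown in pots of peat moss/vermiculite planting medium, received postemergence applications of the formulated test chemicals. After 13 to 15 days in a greenhouse, injury was scored visually versus controls from 0 (no effect) to 100 (complete control).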

[4] = system: common (oilseed) sunflower (Helianthus annuus); test: Test C pre-/postemergence: sunflower; details: Preemergence
Excerpt: Seeds of plant species selected from blackgrass (Alopecurus myosuroides), bromegrass, downy (downy bromegrass, Bromus tectorum), foxtail, green (green foxtail, Setaria viridis), ryegrass, Italian (Italian ryegrass, Lolium multiflorum), winter wheat (Triticum aestivum), wild oat (Avena fatua), galium (catchweed bedstraw, Galium aparine), bermudagrass (Cynodon dactylon), surinam grass (Brachiaria decumbens), cocklebur (common cocklebur, Xanthium strumarium), corn (Zea mays), large crabgrass (Digitaria sanguinalis), woolly cupgrass (Eriochloa villosa), foxtail, giant (giant foxtail, Setaria faberii), goosegrass (Eleusine indica), johnsongrass (Sorghum halepense), kochia (Kochia scoparia), lambsquarters (Chenopodium album), morningglory (Ipomoea coccinea), nightshade (eastern black nightshade, Solanum ptycanthum), nutsedge, yellow (yellow nutsedge, Cyperus esculentus), pigweed (Amaranthus retroflexus), ragweed (common ragweed, Ambrosia elation), soybean (Glycine max), common (oilseed) sunflower (Helianthus annuus), Russian thistle (Salsola kali) and velvetleaf (Abutilon theophrasti) were planted into a blend of loam soil and sand and treated preemergence with test chemicals formulated in a non-phytotoxic solvent mixture which included a surfactant.
At the same time, plants selected from these crop and weed species and also barley (winter barley, Hordeum vulgare), canarygrass (Phalaris minor), chickweed (common chickweed, Stellaria media) windgrass (Apera spica-venti) and deadnettle (henbit deadnettle, Lamium amplexicaule) were planted in pots containing Redi-Earth® planting medium (Scotts Company, 14111 Scottslawn Road, Marysville, Ohio 43041) comprising spaghnum peat moss, vermiculite, wetting agent and starter nutrients and treated with postemergence applications of test chemicals formulated in the same manner. Plants ranged in height from 2 to 18 cm (1- to 4-leaf stage) for postemergence treatments.
Treated plants and controls were maintained in a greenhouse for 13 to 15 days, after which time all species were compared to controls and visually evaluated. Plant response ratings, summarized in Table C, are based on a scale of 0 to 100 where 0 is no effect and 100 is complete control. A dash (-) response means no test result.

[5] = system: nightshade (eastern black nightshade, Solanum ptycanthum); test: Test C pre-/postemergence: nightshade; details: Preemergence
How it was run: as §1

[6] = 31 g ai/ha, scale of 0 to 100, 0 is no effect, 100 is complete control
[7] = 62 g ai/ha, scale of 0 to 100, 0 is no effect, 100 is complete control
[8] = 125 g ai/ha, scale 0 to 100, 0 no effect, 100 complete control
[9] = 250 g ai/ha, scale 0 to 100, 0 no effect, 100 complete control

## Cc1nn(-c2ccc(C(F)(F)F)cc2)nc1Cc1ccnc(C(F)(F)F)c1 [Compound 47, 4-[[5-methyl-2-[4-(trifluoromethyl)phenyl]-2H-1,2,3-triazol-4-yl]methyl]-2-(trifluoromethyl)pyridine]
[1]; post-emergence, Postemergence, 0 to 100 scale, 0 is no effect, 100 is complete control, read-out: Foxtail, Giant plant response rating
  pest or weed control at 125 g/ha: 80%
[1]; post-emergence, Postemergence, visual rating on 0 to 100 scale (0 no effect, 100 complete control), approximately ten days, read-out: Foxtail, Giant plant response rating
  pest or weed control at 500 g/ha: 90%
[1]; pre-emergence, Preemergence, 0 to 100 scale (0 no effect, 100 complete control), read-out: Plant response rating, Foxtail, Giant
  pest or weed control at 125 g/ha: 100%
[1]; pre-emergence, Preemergence, 0 to 100 scale, 0 is no effect, 100 is complete control, read-out: Plant response rating, Foxtail, Giant
  pest or weed control at 500 g/ha: 100%
[2]; Postemergence, 31 g ai/ha, scale 0 to 100 (0 no effect, 100 complete control)
  Plant response rating, Morningglory: 75
[2]; Postemergence, 62 g ai/ha, scale 0 to 100 (0 no effect, 100 complete control)
  Plant response rating, Morningglory: 95
[2]; Postemergence, 125 g ai/ha, scale 0 to 100, 0 no effect, 100 complete control
  Plant response rating, Morningglory: 100
[2]; Postemergence, 250 g ai/ha, scale 0 to 100
  Plant response rating, Morningglory: 100
[2]; Preemergence, 31 g ai/ha, scale of 0 to 100, 0 is no effect, 100 is complete control
  Plant response rating, Morningglory: 5
[2]; Preemergence, 62 g ai/ha, scale of 0 to 100, 0 is no effect, 100 is complete control
  Plant response rating, Morningglory: 20
[2]; Preemergence, 125 g ai/ha, scale 0 to 100, 0 no effect, 100 complete control
  Plant response rating, Morningglory: 50
[2]; Preemergence, 250 g ai/ha, scale 0 to 100, 0 no effect, 100 complete control
  Plant response rating, Morningglory: 65
[3]
  Plant response rating, Chickweed: 80
[4]; [6]
  Plant response rating, Sunflower: 0
[4]; [7]
  Plant response rating, Sunflower: 0
[4]; [8]
  Plant response rating, Sunflower: 0
[4]; [9]
  Plant response rating, Sunflower: 10
[5]; [6]
  Plant response rating, Nightshade: 45
[5]; [7]
  Plant response rating, Nightshade: 98
[5]; [8]
  Plant response rating, Nightshade: 98
[5]; [9]
  Plant response rating, Nightshade: 98

Reference: patent publication US9302999B2, “Substituted triazoles as herbicides” (E. I. DU PONT DE NEMOURS AND COMPANY, priority 2012, dated 2016)
